Test [1] relates to pre-miR-21. The test is described as follows: RT-qPCR of pre-miR-21 in CRISPR-Control sgRNA MDA-MB-231 cells. The class given is cell-based. Conditions: 5 μM. On the procedure:
(§1) Two CRISPR-modified MDA-MB-231 cell lines with either a scrambled control guide RNA (“Control sgRNA”; RNase L is expressed) or with an RNase L-targeting guide RNA (“RNase L-Targeting sgRNA”; RNase L protein abundance is knocked down) were used to complete these studies.
MDA-MB-231 cells were treated with compound (0.1% DMSO final concentration) for 24 h, followed by removal of the compound-containing medium and redosing in growth medium for an additional 24 h (total treatment period of 48 h), with the exception of invasion assays in which the cells were treated overnight. For the time-course experiment, MDA-MB-231 cells were treated for the indicated lengths of time. MCF-10A cells, also used in invasion assays, were treated with compound overnight (0.1% DMSO final concentration).
RNA Isolation and Quantitative Real-Time Polymerase Chain Reaction (RT-qPCR). MDAMB-231 cells were cultured as described in “Cell Culture.” After compound treatment, total RNA was extracted using a Quick-RNA Miniprep Kit (Zymo) per the manufacturer's instructions. […] RT-qPCR was performed on a QuantStudio5™ Real-Time PCR Instrument (Applied Biosystems) using Power SYBR Green Master Mix (Applied Biosystems), and the resulting data were analyzed using the ΔΔCt method.
In general terms: Quantitative PCR measures a nucleic acid by following its amplification.

Test [2] deals with T1, pre-miR-21 mutant and RNase L (Homo sapiens, UniProt Q05823, H672N).
T1 construct: GST (N, cleaved yes); made in house; host or cells: BL21 AI Escherichia coli
T1 sequence (Q05823 1-741 H672N): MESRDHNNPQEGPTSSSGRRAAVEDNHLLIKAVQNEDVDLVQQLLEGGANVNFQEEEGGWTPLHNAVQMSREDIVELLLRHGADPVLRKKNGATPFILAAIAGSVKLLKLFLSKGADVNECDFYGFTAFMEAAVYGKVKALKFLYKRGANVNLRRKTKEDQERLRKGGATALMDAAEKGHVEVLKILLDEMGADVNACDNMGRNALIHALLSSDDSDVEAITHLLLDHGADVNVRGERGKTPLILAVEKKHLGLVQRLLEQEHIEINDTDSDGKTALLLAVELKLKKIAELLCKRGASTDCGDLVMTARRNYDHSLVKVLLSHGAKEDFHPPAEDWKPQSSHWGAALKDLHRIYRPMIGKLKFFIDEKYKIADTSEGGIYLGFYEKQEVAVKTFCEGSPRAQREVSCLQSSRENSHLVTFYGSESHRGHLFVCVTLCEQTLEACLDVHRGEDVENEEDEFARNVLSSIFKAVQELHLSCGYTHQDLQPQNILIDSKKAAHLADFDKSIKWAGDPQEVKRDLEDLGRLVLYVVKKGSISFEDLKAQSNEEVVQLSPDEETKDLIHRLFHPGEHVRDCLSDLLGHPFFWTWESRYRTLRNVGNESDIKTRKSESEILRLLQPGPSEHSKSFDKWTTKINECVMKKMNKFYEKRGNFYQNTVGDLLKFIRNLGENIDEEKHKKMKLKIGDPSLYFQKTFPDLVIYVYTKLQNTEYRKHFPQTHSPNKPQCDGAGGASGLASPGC
The experiment in a line: Co-immunoprecipitation of mutant pre-miR-21 and RNase L. The class given is binding. Conditions: base paired mutant pre-miR-21, inactive RNase L. The method, then:
Co-Immunoprecipitation of pre-miR-2I and RNase L. Approximately 20,000 cpm of 32P 5′-end labeled WT or mutant pre-miR-21 or an RNA construct where the A-bulge was mutated to a base pair (5′-[…] UGGGCUGU-3′) was folded in 1× RNase L Assay Buffer for 1 min at 95° C. and cooled on ice for 10 min. Following cooling, β-mercaptoethanol (7 mM), ATP (50 μM), and MgCl2 (1 mM) were added to the solution. The solution was aliquoted, and compounds were incubated in solution for 15 min (1% DMSO final concentration). […] Beads were then washed with 1×PBS supplemented with 0.02% (v/v) Tween-20. Radioactive signal in the supernatant and associated with the beads was quantified by a Beckman Coulter LS6500 Liquid Scintillation Counter. Relative RNA enrichment was calculated by comparing the radioactive signal associated with beads compared to the total radioactive signal from the beads plus the supernatant.

For test [3], the system named is mature and pre-miR-21. The experiment in a line: RT-qPCR in RNase L-Targeting sgRNA (knock-down) MDA-MB-231 cells. The class given is cell-based. The note with it: RNase L knocked down by CRISPR.
Source text: as §1
Generation of the RNase L Knockdown MDA-MB-231 Cell Line. RNase L knockdown and control MDA-MB-231 cell lines were generated by CRISPR as previously described.^1 Briefly, lentiviral constructs containing Cas9 and gRNAs against RNASEL or a negative control were purchased from Transomic Technologies, Inc. [catalog #TEVH-1249025-pCLIP-ALL-hCMVPuro (KD+) and TELA1015 (KD−)] and packaged by transfecting HEK293T cells (ATCC, catalog #CRL-11268) using Lipofectamine 2000 transfection reagent (Invitrogen; catalog #11668500) and Cellecta packaging mix (Cellecta, catalog #CPCP-K2A) in Opti-MEM (Gibco, catalog #31985070). Virus supernatants were harvested 72 h post-transfection and filtered through a 0.45 μm PES filter (mdi Membrane Technologies Inc., catalog #SYPL0602MNXX204). […]
RNA Isolation and Quantitative Real-Time Polymerase Chain Reaction (RT-qPCR). […] RT-qPCR was performed on a QuantStudio5™ Real-Time PCR Instrument (Applied Biosystems) using Power SYBR Green Master Mix (Applied Biosystems), and the resulting data were analyzed using the ΔΔCt method.

Test [4] deals with pre-miR-21. The experiment in a line: In vitro cleavage of dually labeled pre-miR-21 with RNase L. The test is classed as biochemical. The note with it: incubated with RNase L.

Here are results for one molecule from patent publication US20260167614A1, “IDENTIFICATION OF SMALL MOLECULES THAT RECRUIT AND ACTIVATE RNASE L” (UNIVERSITY OF FLORIDA RESEARCH FOUNDATION, INCORPORATED, priority 2022, published 2026).

Each structure is given as a SMILES string.

As to `CNC(=O)[C@H](c1ccccc1)N(C)Cc1ccc(-c2cccc(-c3sccc3NC(=O)CCOCCOCCOCCC(=O)NCCN3CCN(c4ccc5nc(-c6c(N)c7c(F)cccc7[nH]c6=O)[nH]c5c4)CC3)c2)cc1` [RiboTAC 7, (S)—N-(2-(4-(2-(4-amino-5-fluoro-2-oxo-1,2-dihydroquinolin-3-yl)-1H-benzo[d]imidazol-6-yl)piperazin-1-yl)ethyl)-3-(2-(2-(3-((2-(4′-((methyl(2-(methylamino)-2-oxo-1-phenylethyl)amino)methyl)-[1,1′-biphenyl]-3-yl)thiophen-3-yl)amino)-3-oxopropoxy)ethoxy)ethoxy)propanamide], in test [1] (48 h treatment, RNase L expressed), the “reduction of pre-miR-21 abundance” value is given as around 30%. In addition, the “treatment time at which pre-miR-21 degradation is first detectable” value in test [1] (time-course) was determined as 48 h. The “co-immunoprecipitation of RNA with RNase L” value in test [2] is “not its base paired mutant”. Further, the “effect on mature and pre-miR-21 levels” value in test [3] was “inactive”. For the same molecule, the “cleavage of pre-miR-21 construct labeled with 6-FAM and BHQ” value in test [4] is on record as “induced dose-dependent cleavage of pre-miR-21”.
